The assay has as its target T1, Human Polθ polymerase domain (aa1820-2590) (Homo sapiens, UniProt O75417).
T1 construct: Human Polθ polymerase domain (aa1820-2590) was expressed in E. Coli; made in house; host or cells: E. coli
T1 sequence (O75417 1820-2590): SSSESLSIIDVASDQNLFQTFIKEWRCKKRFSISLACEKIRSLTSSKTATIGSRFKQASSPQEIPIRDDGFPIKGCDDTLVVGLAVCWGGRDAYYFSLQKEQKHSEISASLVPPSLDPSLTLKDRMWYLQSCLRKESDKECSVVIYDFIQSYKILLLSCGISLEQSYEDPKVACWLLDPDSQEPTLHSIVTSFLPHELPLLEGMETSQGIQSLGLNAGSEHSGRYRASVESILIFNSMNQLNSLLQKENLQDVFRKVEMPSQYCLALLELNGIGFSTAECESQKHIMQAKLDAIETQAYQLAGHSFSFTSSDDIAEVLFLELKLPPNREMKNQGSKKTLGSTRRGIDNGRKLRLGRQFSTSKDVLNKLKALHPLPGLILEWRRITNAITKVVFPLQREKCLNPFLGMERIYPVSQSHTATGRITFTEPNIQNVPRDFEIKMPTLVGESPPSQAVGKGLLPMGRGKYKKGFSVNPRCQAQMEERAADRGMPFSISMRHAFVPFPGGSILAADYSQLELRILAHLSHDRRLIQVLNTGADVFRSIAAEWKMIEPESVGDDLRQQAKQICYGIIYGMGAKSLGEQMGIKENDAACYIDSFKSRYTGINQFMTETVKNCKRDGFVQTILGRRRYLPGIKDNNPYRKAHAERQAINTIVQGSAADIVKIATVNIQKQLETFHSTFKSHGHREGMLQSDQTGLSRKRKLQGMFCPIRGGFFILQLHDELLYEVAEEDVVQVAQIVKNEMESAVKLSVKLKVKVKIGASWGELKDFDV
Description: Polθ Polymerase Domain Kinact/Kl Assay (PicoGreen). The class given is biochemical. Conditions: covalent inhibitors, kobs vs [I] fit, 0.8 nM Polθ, 100 nM DNA substrate, read-out: Kinact/KI. In short, it runs like this: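 E. coli-expressed enzyme (0.8 nM final) was run with 100 nM annealed DNA substrate and dNTPs in Tris pH 7.5 buffer (1% DMSO), with EDTA stops across a time course up to 60 min. Synthesised DNA was read by PicoGreen fluorescence. kobs per inhibitor concentration was fitted from the time courses, and Kinact and KI came from the kobs-vs-[I] plot.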
Turning to `C=CC(=O)N1CCN(CCCN2CC[C@H](Nc3nc(C)cc(C(F)(F)F)c3C#N)C(=O)N(C)c3ccc(F)cc32)CC1` [Example 38, (S)-2-((6-(3-(4-Acryloylpiperazin-1-yl)propyl)-8-fluoro-1-methyl-2-oxo-1,2,3,4,5,6-hexahydrobenzo[b][1,4]diazocin-3-yl)amino)-6-methyl-4-(trifluoromethyl)nicotinonitrile], the kinact/KI was 480000 M⁻¹ s⁻¹. In the case of `Cc1cc(C(F)(F)F)c(C#N)c(N[C@H]2CCN(CCCN3CCN(C(=O)/C=C/CN(C)C)CC3)c3cc(F)ccc3N(C)C2=O)n1` [Example 39, (S,E)-2-((6-(3-(4-(4-(Dimethylamino)but-2-enoyl)piperazin-1-yl)propyl)-8-fluoro-1-methyl-2-oxo-1,2,3,4,5,6-hexahydrobenzo[b][1,4]diazocin-3-yl)amino)-6-methyl-4-(trifluoromethyl)nicotinonitrile], the kinact/KI came to 1e+06 M⁻¹ s⁻¹. As for `Cc1cc(C(F)(F)F)c(C#N)c(N[C@H]2CCN(CCCOC3CN(C(=O)/C=C/CN(C)C)C3)c3c(F)cccc3N(C)C2=O)n1` [Example 40, (S,E)-2-((6-(3-((1-(4-(Dimethylamino)but-2-enoyl)azetidin-3-yl)oxy)propyl)-7-fluoro-1-methyl-2-oxo-1,2,3,4,5,6-hexahydrobenzo[b][1,4]diazocin-3-yl)amino)-6-methyl-4-(trifluoromethyl)nicotinonitrile], the kinact/KI came to 3e+06 M⁻¹ s⁻¹. In the case of `Cc1cc(C(F)(F)F)c(C#N)c(N[C@H]2CCN(CCCOC3CN(C(=O)/C=C/CN(C)C)C3)c3ccccc3N(C)C2=O)n1` [Example 41, (S, E)-2-((6-(3-((1-(4-(Dimethylamino)but-2-enoyl)azetidin-3-yl)oxy)propyl)-1-methyl-2-oxo-1,2,3,4,5,6-hexahydrobenzo[b][1,4]diazocin-3-yl)amino)-6-methyl-4-(trifluoromethyl)nicotinonitrile] it was 1.4e+06 M⁻¹ s⁻¹; in that of `Cc1cc(C(F)(F)F)c(C#N)c(N[C@H]2CCN(CCCOC3CN(C(=O)/C=C/CN(C)C)C3)c3cc(F)ccc3N(C)C2=O)n1` [Example 42, (S,E)-2-((6-(3-((1-(4-(Dimethylamino)but-2-enoyl)azetidin-3-yl)oxy)propyl)-8-fluoro-1-methyl-2-oxo-1,2,3,4,5,6-hexahydrobenzo[b][1,4]diazocin-3-yl)amino)-6-methyl-4-(trifluoromethyl)nicotinonitrile], 820000 M⁻¹ s⁻¹; in that of `Cc1cc(C(F)(F)F)c(C#N)c(N[C@H]2CCN(CCCOC3CN(C(=O)/C=C/CN(C)C)C3)c3cc(F)cc(F)c3N(C)C2=O)n1` [Example 43, (S,E)-2-((6-(3-((1-(4-(Dimethylamino)but-2-enoyl)azetidin-3-yl)oxy)propyl)-8,10-difluoro-1-methyl-2-oxo-1,2,3,4,5,6-hexahydrobenzo[b][1,4]diazocin-3-yl)amino)-6-methyl-4-(trifluoromethyl)nicotinonitrile], 900000 M⁻¹ s⁻¹. For the molecule `Cc1cc(C(F)(F)F)c(C#N)c(N[C@H]2CCN(CCCOC3CN(C(=O)/C=C/CN(C)C)C3)c3c(Cl)cccc3N(C)C2=O)n1` [Example 44, (S,E)-2-((7-Chloro-6-(3-((1-(4-(dimethylamino)but-2-enoyl)azetidin-3-yl)oxy)propyl)-1-methyl-2-oxo-1,2,3,4,5,6-hexahydrobenzo[b][1,4]diazocin-3-yl)amino)-6-methyl-4-(trifluoromethyl)nicotinonitrile], the kinact/KI came to 1.3e+06 M⁻¹ s⁻¹. In the case of `Cc1cc(C(F)(F)F)c(C#N)c(N[C@H]2CCN(CCOC3CCN(C(=O)/C=C/CN(C)C)CC3)c3c(F)cccc3N(C)C2=O)n1` [Example 49, (S,E)-2-((6-(2-((1-(4-(Dimethyl-amino)but-2-enoyl)piperidin-4-yl)oxy)ethyl)-7-fluoro-1-methyl-2-oxo-1,2,3,4,5,6-hexahydrobenzo [b][1,4]diazocin-3-yl)amino)-6-methyl-4-(tri-fluoromethyl)-nicotinonitrile] it was 110000 M⁻¹ s⁻¹; in that of `Cc1cc(C(F)(F)F)c(C#N)c(N[C@H]2CCN(CCOC3CN(C(=O)/C=C/CN(C)C)C3)c3ccccc3N(C)C2=O)n1` [Example 50, (S,E)-2-((6-(2-((1-(4-(Dimethylamino)but-2-enoyl)azetidin-3-yl)oxy)ethyl)-1-methyl-2-oxo-1,2,3,4,5,6-hexahydrobenzo[b][1,4]diazocin-3-yl)amino)-6-methyl-4-(trifluoromethyl)nicotinonitrile], 110000 M⁻¹ s⁻¹. With `C=CC(=O)N1CC(OCCN2CC[C@H](Nc3nc(C)cc(C(F)(F)F)c3C#N)C(=O)N(C)c3ccccc32)C1` [Example 51, (S)-2-((6-(2-((1-Acryloylazetidin-3-yl)oxy)ethyl)-1-methyl-2-oxo-1,2,3,4,5,6-hexahydrobenzo[b][1,4]diazocin-3-yl)amino)-6-methyl-4-(trifluoromethyl)nicotinonitrile], the kinact/KI stood at 70000 M⁻¹ s⁻¹. Regarding `C=CC(=O)N1CC2(CC(CN3CC[C@H](Nc4nc(C)cc(C(F)(F)F)c4C#N)C(=O)N(C)c4ccccc43)C2)C1` [Example 52, (S)-2-((6-((2-Acryloyl-2-azaspiro[3.3]heptan-6-yl)methyl)-1-methyl-2-oxo-1,2,3,4,5,6-hexahydrobenzo[b][1,4]diazocin-3-yl)amino)-6-methyl-4-(trifluoromethyl)nicotinonitrile], the kinact/KI turned out to be 150000 M⁻¹ s⁻¹. On to `C=CC(=O)N1CC(OCCCN2CC[C@H](Nc3nc(C)cc(C(F)(F)F)c3C#N)C(=O)N(C)c3ccccc32)C1` [Example 53, (S)-2-((6-(3-((1-Acryloylazetidin-3-yl)oxy)propyl)-1-methyl-2-oxo-1,2,3,4,5,6-hexahydrobenzo[b][1,4]diazocin-3-yl)amino)-6-methyl-4-(trifluoromethyl)nicotinonitrile], for which the kinact/KI stood at 500000 M⁻¹ s⁻¹. On to `Cc1cc(C(F)(F)F)c(C#N)c(N[C@H]2CCN(CCCOC3CN(C(=O)/C=C/[C@@H]4CCCN4C)C3)c3c(F)cccc3N(C)C2=O)n1` [Example 54, 2-(((S)-7-Fluoro-1-methyl-6-(3-((1-((E)-3-((S)-1-methylpyrrolidin-2-yl)acryloyl)azetidin-3-yl)oxy)propyl)-2-oxo-1,2,3,4,5,6-hexahydrobenzo[b][1,4]diazocin-3-yl)amino)-6-methyl-4-(trifluoromethyl)nicotinonitrile], for which the kinact/KI was determined as 700000 M⁻¹ s⁻¹. Consider `Cc1cc(C(F)(F)F)c(C#N)c(N[C@H]2CCN(CCCOC3CN(C(=O)/C=C/[C@H]4CCCN4C)C3)c3c(F)cccc3N(C)C2=O)n1` [Example 55, 2-(((S)-7-Fluoro-1-methyl-6-(3-((1-((E)-3-((R)-1-methylpyrrolidin-2-yl)acryloyl)azetidin-3-yl)oxy)propyl)-2-oxo-1,2,3,4,5,6-hexahydrobenzo[b][1,4]diazocin-3-yl)amino)-6-methyl-4-(trifluoromethyl)nicotinonitrile], for which the kinact/KI came out at 810000 M⁻¹ s⁻¹. Then `COCCN(C)C/C=C/C(=O)N1CC(OCCCN2CC[C@H](Nc3nc(C)cc(C(F)(F)F)c3C#N)C(=O)N(C)c3cccc(F)c32)C1` [Example 56, (S,E)-2-((7-Fluoro-6-(3-((1-(4-((2-methoxyethyl)(methyl)amino)but-2-enoyl)azetidin-3-yl)oxy)propyl)-1-methyl-2-oxo-1,2,3,4,5,6-hexahydrobenzo[b][1,4]diazocin-3-yl)amino)-6-methyl-4-(trifluoromethyl)nicotinonitrile], with 1.1e+07 M⁻¹ s⁻¹; and `C#CCN(C)C/C=C/C(=O)N1CC(OCCCN2CC[C@H](Nc3nc(C)cc(C(F)(F)F)c3C#N)C(=O)N(C)c3cccc(F)c32)C1` [Example 57, (S,E)-2-((7-Fluoro-1-methyl-6-(3-((1-(4-(methyl(prop-2-yn-1-yl)amino)but-2-enoyl)azetidin-3-yl)oxy)propyl)-2-oxo-1,2,3,4,5,6-hexahydrobenzo[b][1,4]diazocin-3-yl)amino)-6-methyl-4-(trifluoromethyl)nicotinonitrile], with 300000 M⁻¹ s⁻¹; and `Cc1cc(C(F)(F)F)c(C#N)c(N[C@H]2CCN(C[C@@H]3CN(C4CN(C(=O)/C=C/CN(C)C)C4)CCO3)c3c(F)cccc3N(C)C2=O)n1` [Example 59, 2-(((S)-6-(((S)-4-(1-((E)-4-(Dimethylamino)but-2-enoyl)azetidin-3-yl)morpholin-2-yl)methyl)-7-fluoro-1-methyl-2-oxo-1,2,3,4,5,6-hexahydrobenzo[b][1,4]diazocin-3-yl)amino)-6-methyl-4-(trifluoromethyl)nicotinonitrile], with 120000 M⁻¹ s⁻¹.

Regarding `Cc1cc(C(F)(F)F)c(C#N)c(N[C@H]2CCN(C[C@H]3CN(C4CN(C(=O)/C=C/CN(C)C)C4)CCO3)c3c(F)cccc3N(C)C2=O)n1` [Example 60, 2-(((S)-6-(((R)-4-(1-((E)-4-(Dimethylamino)but-2-enoyl)azetidin-3-yl)morpholin-2-yl)methyl)-7-fluoro-1-methyl-2-oxo-1,2,3,4,5,6-hexahydrobenzo[b][1,4]diazocin-3-yl)amino)-6-methyl-4-(trifluoromethyl)nicotinonitrile], the kinact/KI was determined as 240000 M⁻¹ s⁻¹.

Source of the values: patent US20250241926A1, “HETEROCYCLIC COMPOUNDS FOR USE IN THE TREATMENT OF CANCER” (ARTIOS PHARMA LIMITED, priority 2021, published 2025).
